ChEMBL document CHEMBL5042473 (J Med Chem, 2022)

Experiments:
[1] = target: Mitogen-activated protein kinase 14 (Homo sapiens, UniProt Q16539); test: Inhibition of human p38 MAPK alpha incubated for 1 hr by photometric method
[2] = Metabolic stability in human liver microsomes assessed as parent compound remaining incubated for 120 mins; assay type: ADME, Microsome; settings: read-out: Stability
[3] = Ratio of drug concentration in RjOrl:Swiss (CD-1) mouse brain to plasma at 10mg/kg, iv administered measured after 2 hrs by LC-MS/MS analysis; assay type: ADME, organism-based; settings: brain and plasma, read-out: BPR
[4] = Cytotoxicity against Balb/c mouse splenocytes assessed as metabolic activity at 100 nM incubated for 24 hrs by MTT assay relative to LPS-stimulated splenocytes; assay type: toxicity, cell-based, Splenocyte; settings: read-out: Activity
[5] = test system: Splenocyte; test: Cytotoxicity against Balb/c mouse splenocytes assessed as metabolic activity at 1 to 10 nM incubated for 24 hrs by MTT assay; assay type: toxicity, cell-based; settings: 0.01 µM, dose 1-10 nM
[6] = test system: Blood; test: Antiinflammatory activity against LPS-stimulated C57BL/6 mouse whole blood assessed as reduction in TNF-alpha at 1 nM incubated for 24 hrs by ELISA based method; assay type: functional; parameters: scale not given: the % may be the effect or the level left
[7] = Drug uptake in mouse C57BL/6 brain at 0.4 mg/kg,iv measured upto 240 mins by LC-MS/MS analysis; assay type: ADME, organism-based; settings: in vivo, 4 h
[8] = Drug uptake in mouse C57BL/6 brain at 0.4 mg/kg,po measured upto 240 mins by LC-MS/MS analysis; assay type: ADME, organism-based; settings: in vivo, 4 h
[9] = Drug uptake in RjOrl:Swiss (CD-1) mouse brain at 10 mg/kg, iv administered measured after 2 hrs by LC-MS/MS analysis; assay type: ADME, organism-based; settings: read-out: Ct

Chain of Mitogen-activated protein kinase 14 (Q16539 whole entry): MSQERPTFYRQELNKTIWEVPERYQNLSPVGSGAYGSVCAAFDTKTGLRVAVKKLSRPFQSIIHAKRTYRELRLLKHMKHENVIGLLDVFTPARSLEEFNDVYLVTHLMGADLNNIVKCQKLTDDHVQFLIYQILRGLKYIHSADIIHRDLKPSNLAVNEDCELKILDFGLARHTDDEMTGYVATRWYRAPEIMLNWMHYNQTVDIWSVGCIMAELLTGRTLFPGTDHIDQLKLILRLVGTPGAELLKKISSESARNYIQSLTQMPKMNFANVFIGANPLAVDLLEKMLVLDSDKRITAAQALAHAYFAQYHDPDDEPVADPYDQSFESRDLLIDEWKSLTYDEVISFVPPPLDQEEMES

SMILES	IC50 [1] [µM]	other results
COC(=O)CC[C@H](NC(=O)c1ccc2c(c1)C(=O)c1ccc(Nc3ccc(F)cc3F)cc1CC2)C(=O)OC	0.0012	–
O=C(NCCc1c[nH]c2ccccc12)c1ccc2c(c1)C(=O)c1ccc(Nc3ccc(F)cc3F)cc1CC2	0.028	remaining at 2 h [2]: 71%
Nc1ccccc1Nc1ccc2c(c1)CCc1ccc(C(=O)NCCN3CCNCC3)cc1C2=O	0.018	–
COC(=O)[C@@H](N)CNC(=O)c1ccc2c(c1)C(=O)c1ccc(Nc3ccc(F)cc3F)cc1CC2	0.0054	remaining at 2 h [2]: 12%
O=C(NCCCc1ccccc1)c1ccc2c(c1)C(=O)c1ccc(Nc3ccc(F)cc3F)cc1CC2	0.05	–
COC(=O)[C@H](CCSC)NC(=O)c1ccc2c(c1)C(=O)c1ccc(Nc3ccccc3N)cc1CC2	0.013	remaining at 2 h [2]: 0%
CN(CCc1ccccc1)C(=O)c1ccc2c(c1)C(=O)c1ccc(Nc3ccc(F)cc3F)cc1CC2	0.39	–
N[C@@H](CCCCNC(=O)c1ccc2c(c1)C(=O)c1ccc(Nc3ccc(F)cc3F)cc1CC2)C(=O)O	0.0035	Kp at 2 h [3]: 0.01
Nc1ccccc1Nc1ccc2c(c1)CCc1ccc(C(=O)NCCO)cc1C2=O	0.014	remaining at 2 h [2]: 99%
O=C(NCCc1ccc(O)cc1)c1ccc2c(c1)C(=O)c1ccc(Nc3ccc(F)cc3F)cc1CC2	0.0078	–
N[C@@H](CNC(=O)c1ccc2c(c1)C(=O)c1ccc(Nc3ccc(F)cc3F)cc1CC2)C(=O)O	–	Kp at 2 h [3]: 0.003
COC(=O)[C@@H](N)CCCCNC(=O)c1ccc2c(c1)C(=O)c1ccc(Nc3ccccc3N)cc1CC2	0.012	–
NC(=O)CCNC(=O)c1ccc2c(c1)C(=O)c1ccc(Nc3ccc(F)cc3F)cc1CC2	0.0062	remaining at 2 h [2]: 95%
O=C(NC(CO)(CO)CO)c1ccc2c(c1)C(=O)c1ccc(Nc3ccc(F)cc3F)cc1CC2	0.003	viability at 24 h, 0.1 µM [4]: 66%; Activity [5]: Non-Toxic; Activity [6]: 5%; Drug uptake [7]: Not Active; Drug uptake [8]: Not Active
CC(NC(=O)c1ccc2c(c1)C(=O)c1ccc(Nc3ccc(F)cc3F)cc1CC2)C1CCCCC1 (centres undefined)	0.022	–
O=C(NC1(c2ccccc2)CC1)c1ccc2c(c1)C(=O)c1ccc(Nc3ccc(F)cc3F)cc1CC2	0.0025	Kp at 2 h [3]: 0.51; concentration at 2 h [9]: 49 ng/g
NCCNC(=O)c1ccc2c(c1)C(=O)c1ccc(Nc3ccc(F)cc3F)cc1CC2	0.0025	viability at 24 h, 0.1 µM [4]: 66%; Activity [5]: Non-Toxic; Activity [6]: 5%; Drug uptake [7]: Not Active; Drug uptake [8]: Not Active
O=C(NCC(F)(F)F)c1ccc2c(c1)C(=O)c1ccc(Nc3ccc(F)cc3F)cc1CC2	0.0035	–
O=C(NCCc1ccc(F)cc1)c1ccc2c(c1)C(=O)c1ccc(Nc3ccc(F)cc3F)cc1CC2	0.021	–
Nc1ccccc1Nc1ccc2c(c1)CCc1ccc(C(=O)NCCCC[C@H](N)C(=O)O)cc1C2=O	0.017	–
COC(=O)[C@@H](N)CCCCNC(=O)c1ccc2c(c1)C(=O)c1ccc(Nc3ccc(F)cc3F)cc1CC2	0.0021	–
Nc1ccccc1Nc1ccc2c(c1)CCc1ccc(C(=O)N[C@@H](CCC(=O)O)C(=O)O)cc1C2=O	0.027	–
O=C(NCCc1c[nH]cn1)c1ccc2c(c1)C(=O)c1ccc(Nc3ccc(F)cc3F)cc1CC2	0.0056	remaining at 2 h [2]: 95%
NC(=O)c1ccc2c(c1)C(=O)c1ccc(Nc3ccccc3N)cc1CC2	0.0061	–
NCCNC(=O)c1ccc2c(c1)C(=O)c1ccc(Nc3ccccc3N)cc1CC2	0.0053	–
O=C(NO)c1ccc2c(c1)C(=O)c1ccc(Nc3ccc(F)cc3F)cc1CC2	0.0052	remaining at 2 h [2]: 13%
Nc1ccccc1Nc1ccc2c(c1)CCc1ccc(C(=O)NC(CO)CO)cc1C2=O	0.015	–

SMILES	IC50 [1] [µM]	other results
COC(=O)[C@H](C)NC(=O)c1ccc2c(c1)C(=O)c1ccc(Nc3ccc(F)cc3F)cc1CC2	0.003	remaining at 2 h [2]: 93%
O=C(NCCN1CCNCC1)c1ccc2c(c1)C(=O)c1ccc(Nc3ccc(F)cc3F)cc1CC2	0.0013	remaining at 2 h [2]: 93%; Kp at 2 h [3]: 0.24
O=C(N[C@@H]1[C@@H](O)[C@H](O)[C@@H](CO)O[C@H]1O)c1ccc2c(c1)C(=O)c1ccc(Nc3ccc(F)cc3F)cc1CC2	0.0052	Kp at 2 h [3]: 0.09; concentration at 2 h [9]: 5.9 ng/g
O=C(NCCc1cccs1)c1ccc2c(c1)C(=O)c1ccc(Nc3ccc(F)cc3F)cc1CC2	0.0064	–
O=C(O)CNC(=O)c1ccc2c(c1)C(=O)c1ccc(Nc3ccc(F)cc3F)cc1CC2	0.0093	remaining at 2 h [2]: 93%; Kp at 2 h [3]: 0.13; concentration at 2 h [9]: 8.2 ng/g
CC(C)(C)OC(=O)N1CCN(CCNC(=O)c2ccc3c(c2)C(=O)c2ccc(Nc4ccccc4N)cc2CC3)CC1	0.0019	–
Nc1ccccc1Nc1ccc2c(c1)CCc1ccc(C(=O)NCC(O)CO)cc1C2=O (centres undefined)	0.015	–
CN(C)CCNC(=O)c1ccc2c(c1)C(=O)c1ccc(Nc3ccccc3N)cc1CC2	0.0084	remaining at 2 h [2]: 50%; Kp at 2 h [3]: 0.59
COC(=O)CNC(=O)c1ccc2c(c1)C(=O)c1ccc(Nc3ccc(F)cc3F)cc1CC2	0.012	remaining at 2 h [2]: 0%
CCCCCCCCCCCCCCCCNC(=O)c1ccc2c(c1)C(=O)c1ccc(Nc3ccc(F)cc3F)cc1CC2	> 1	–
COC(=O)[C@H](CCSC)NC(=O)c1ccc2c(c1)C(=O)c1ccc(Nc3ccc(F)cc3F)cc1CC2	0.0069	–
CN(C)C(=O)c1ccc2c(c1)C(=O)c1ccc(Nc3ccc(F)cc3F)cc1CC2	0.095	–
Nc1ccccc1Nc1ccc2c(c1)CCc1ccc(C(=O)NCCc3cnc[nH]3)cc1C2=O	0.026	–
Nc1ccccc1Nc1ccc2c(c1)CCc1ccc(C(=O)NCCc3ccccc3)cc1C2=O	0.02	–
O=C(NCCOCCO)c1ccc2c(c1)C(=O)c1ccc(Nc3ccc(F)cc3F)cc1CC2	0.01	viability at 24 h, 0.1 µM [4]: 66%; Activity [5]: Non-Toxic; Activity [6]: 5%; Drug uptake [7]: Not Active; Drug uptake [8]: Not Active
Nc1ccccc1Nc1ccc2c(c1)CCc1ccc(C(=O)NCCN3CCOCC3)cc1C2=O	0.018	remaining at 2 h [2]: < 38%; Kp at 2 h [3]: 0.08
CSCC[C@H](NC(=O)c1ccc2c(c1)C(=O)c1ccc(Nc3ccc(F)cc3F)cc1CC2)C(=O)O	0.011	Drug uptake [7]: Not Active; Drug uptake [8]: Not Active
CCCCCCCCNC(=O)c1ccc2c(c1)C(=O)c1ccc(Nc3ccc(F)cc3F)cc1CC2	0.39	–
O=C(O)CC[C@H](NC(=O)c1ccc2c(c1)C(=O)c1ccc(Nc3ccc(F)cc3F)cc1CC2)C(=O)O	0.008	remaining at 2 h [2]: 93%
O=C1c2ccc(Nc3ccc(F)cc3F)cc2CCc2ccc(C(=O)N3CCCCC3)cc21	0.12	–
O=C(NCCc1ccccc1)c1ccc2c(c1)C(=O)c1ccc(Nc3ccc(F)cc3F)cc1CC2	0.021	–
COC(=O)[C@@H](N)CCNC(=O)c1ccc2c(c1)C(=O)c1ccc(Nc3ccc(F)cc3F)cc1CC2	0.0023	viability at 24 h, 0.1 µM [4]: 66%; remaining at 2 h [2]: 6%; Activity [5]: Non-Toxic; Activity [6]: 5%; Drug uptake [7]: Not Active; Drug uptake [8]: Not Active
O=C(N[C@@H](Cc1ccccc1)C(=O)O)c1ccc2c(c1)C(=O)c1ccc(Nc3ccc(F)cc3F)cc1CC2	0.036	Kp at 2 h [3]: 0.31; concentration at 2 h [9]: 15 ng/g
COC(=O)[C@H](Cc1ccccc1)NC(=O)c1ccc2c(c1)C(=O)c1ccc(Nc3ccc(F)cc3F)cc1CC2	0.015	–
O=C(NCCNCCO)c1ccc2c(c1)C(=O)c1ccc(Nc3ccc(F)cc3F)cc1CC2	0.0017	Kp at 2 h [3]: 0.17
CC(C)(C)OC(=O)N1CCN(CCNC(=O)c2ccc3c(c2)C(=O)c2ccc(Nc4ccc(F)cc4F)cc2CC3)CC1	0.0024	–
COC(=O)CC[C@H](NC(=O)c1ccc2c(c1)C(=O)c1ccc(Nc3ccccc3N)cc1CC2)C(=O)OC	0.017	–
